# Source: patent US20220235011A1, “PHTHALAZINONE COMPOUNDS AND USE THEREOF” (ST PHARM CO., LTD., priority 2019, published 2022)
# Target: T1, Sirt6 (Homo sapiens, UniProt Q8N6T7)
# T1 construct: purchased CycLex CY-1156V2
# Experiment: Measurement of Sirt6 Activity (CycLex Sirt6 Deacetylase Fluorometric Assay Kit)
# Assay type: biochemical
# Conditions: compound at 10 μM; fluorescence relative to the group without compound treatment (positive control group)
# Experimental: LC-MS (ESI, m/z)=430.1 (M+H^+) Experimental Example 1: Measurement of Sirt6 Activity Compounds having Sirt6 activity were selected using a CycLex Sirt6 Deacetylase Fluorometric Assay Kit (cat. CY-1156V2) manufactured by CycLex.
# When a fluorescent-attached acetylated lysine substrate is treated with Sirt6 enzyme, Sirt6 deacetylates the acetylated lysine of the substrate and lysylendopeptidase cleaves the C-terminal peptide bond connected to the lysine, by which fluorescence is emitted. The activity of a compound is calculated by observing the intensity of fluorescence when the compound is treated along with Sirt6 enzyme. When treating the compound, the compound aids in the activity of Sirt6 enzyme, so as to result in stronger fluorescence. Therefore, by calculating the ratio of the stronger fluorescence relative to the fluorescence emitted from the group without compound treatment (i.e., positive control group), relative activity can be calculated.
# Activity evaluation was performed according to the following procedure.
# The compound whose activity is to be evaluated was prepared by diluting in phosphate-buffered saline (PBS) to 10 times of the desired concentration (e.g., when measuring Sirt6 assay activity at 10 μM, the compound is prepared at a concentration of 100 μM in PBS). 1 μL of a 1 Ox Sirt6 assay buffer, 0.8 μL of 50× fluoro-substrate peptide, 1 μL of nicotinamide adenine dinucleotide (NAD), 1 μL of a developer and 4.2 μL of H2O were mixed to prepare mixtures equal to the number of samples, and 8 μL was dispensed into each Black 384 well. An additional 1 μL of PBS was added to each of a “no enzyme group” and a positive control group, and 1 μL of the compound diluted in PBS was added to an activity evaluation group. Recombinant Sirt6 was 1:8 diluted in a 1×Sirt6 assay buffer, and 1 μL thereof was added to each of the positive control group and the activity evaluation group. 1 μL of the 1×Sirt6 assay buffer was added to the “no enzyme group.” After reacting at room temperature for one hour, results were measured with a fluorescence spectrometer (excitation: 490±10 nm, emission: 530±10 nm) to confirm the presence or absence of Sirt6 activity and measure the intensity of the activity.
# T1 sequence (Q8N6T7 whole entry): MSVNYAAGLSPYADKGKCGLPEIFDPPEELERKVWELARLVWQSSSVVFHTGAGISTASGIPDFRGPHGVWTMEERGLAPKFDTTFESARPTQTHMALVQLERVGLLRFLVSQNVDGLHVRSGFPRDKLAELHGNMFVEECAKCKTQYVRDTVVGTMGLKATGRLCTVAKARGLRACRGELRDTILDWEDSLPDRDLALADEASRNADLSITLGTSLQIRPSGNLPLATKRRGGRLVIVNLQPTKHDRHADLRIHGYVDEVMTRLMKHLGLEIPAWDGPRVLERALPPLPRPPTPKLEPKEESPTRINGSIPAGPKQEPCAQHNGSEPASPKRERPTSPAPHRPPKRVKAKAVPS
row,SMILES,"Sirt6 Activity (% activity, 10 μM)"
1,"CC(C)/[N+]([O-])=C/c1cccc(-c2nn(-c3cc(F)cc(F)c3)c(=O)c3ccccc23)c1 [Example 31, (Z)-1-(3-(3-(3,5-Difluorophenyl)-4-oxo-3,4-dihydrophthalazin-1-yl)phenyl)-N-isopropyl Methanimine Oxide]",171 % activity
2,"COc1ccc(-n2nc(-c3cccc(/C=[N+](\[O-])C(C)C)c3)c3ccccc3c2=O)cc1 [Example 32, (Z)—N-Isopropyl-1-(3-(3-(4-methoxyphenyl)-4-oxo-3,4-dihydrophthalazin-1-yl)phenyl) Methanimine Oxide]",124 % activity
3,"CC(C)/[N+]([O-])=C/c1cccc(-c2nn(-c3ccc(F)c(Cl)c3)c(=O)c3ccccc23)c1 [Example 33, (Z)-1-(3-(3-(3-Chloro-4-fluorophenyl)-4-oxo-3,4-dihydrophthalazin-1-yl)phenyl)-N-isopropyl-methanimine Oxide]",183 % activity
4,"CC(C)(C)/[N+]([O-])=C/c1cccc(-c2nn(-c3ccc(F)c(Cl)c3)c(=O)c3ccccc23)c1 [Example 34, (Z)—N-tert-Butyl-1-(3-(3-(3-chloro-4-fluorophenyl)-4-oxo-3,4-dihydrophthalazin-1-yl)phenyl) Methanimine Oxide]",176 % activity
5,"O=c1c2ccccc2c(-c2cccc(/C=[N+](\[O-])Cc3ccccc3)c2)nn1-c1ccccc1 [Example 35, (Z)—N-Benzyl-1-(3-(4-oxo-3-phenyl-3,4-dihydrophthalazin-1-yl)phenyl)methanimine Oxide]",113 % activity
6,"C/[N+]([O-])=C\c1ccc(-c2nn(-c3ccc(F)cc3)c(=O)c3ccccc23)cc1 [Example 36, (E)-1-(4-(3-(4-Fluorophenyl)-4-oxo-3,4-dihydrophthalazin-1-yl)phenyl)-N-methylmethanimine Oxide]",142 % activity
7,"C/[N+]([O-])=C\c1ccc(-c2nn(-c3ccc(F)cc3)c(=O)c3ccccc23)c(F)c1 [Example 38, (E)-1-(3-Fluoro-4-(3-(4-fluorophenyl)-4-oxo-3,4-dihydrophthalazin-1-yl)phenyl)-N-methylmethanimine Oxide]",143 % activity
8,"CC(C)/[N+]([O-])=C\c1ccc(-c2nn(-c3ccc(F)cc3)c(=O)c3ccccc23)c(F)c1 [Example 39, (E)-1-(3-Fluoro-4-(3-(4-fluorophenyl)-4-oxo-3,4-dihydrophthalazin-1-yl)phenyl)-N-isopropylmethanimine Oxide]",106 % activity
9,"C/[N+]([O-])=C/c1ccccc1-c1nn(-c2ccc(F)cc2)c(=O)c2ccccc12 [Example 40, (Z)-1-(2-(3-(4-Fluorophenyl)-4-oxo-3,4-dihydrophthalazin-1-yl)phenyl)-N-methylmethanimine Oxide]",160 % activity
10,"CC(C)/[N+]([O-])=C/c1ccccc1-c1nn(-c2ccc(F)cc2)c(=O)c2ccccc12 [Example 41, (Z)-1-(2-(3-(4-Fluorophenyl)-4-oxo-3,4-dihydrophthalazin-1-yl)phenyl)-N-isopropyl Methanimine Oxide]",129 % activity
11,"CC(C)(C)/[N+]([O-])=C/c1ccccc1-c1nn(-c2ccc(F)cc2)c(=O)c2ccccc12 [Example 42, (Z)—N-tert-Butyl-1-(2-(3-(4-fluorophenyl)-4-oxo-3,4-dihydrophthalazin-1-yl)phenyl)methanimine Oxide]",161 % activity
12,"CC(C)(C)/[N+]([O-])=C/c1cccc(-c2nn(-c3ccc(F)cc3)c(=O)c3ccccc23)c1 [Example 43, (Z)—N-tert-Butyl-1-(3-(3-(4-fluorophenyl)-4-oxo-3,4-dihydrophthalazin-1-yl)phenyl)methanimine Oxide]",205 % activity
13,"O=c1c2ccccc2c(-c2cccc(/C=[N+](\[O-])Cc3ccccc3)c2)nn1-c1ccc(F)cc1 [Example 44, (Z)—N-Benzyl-1-(3-(3-(4-fluorophenyl)-4-oxo-3,4-dihydrophthalazin-1-yl)phenyl)methanimine Oxide]",142 % activity
14,"C/[N+]([O-])=C/c1ccc(-c2nn(-c3ccc(F)cc3)c(=O)c3ccccc23)s1 [Example 45, (Z)-1-(5-(3-(4-Fluorophenyl)-4-oxo-3,4-dihydrophthalazin-1-yl)thiophen-2-yl)-N-methylmethanimine Oxide]",195 % activity
15,"CC(C)/[N+]([O-])=C/c1ccc(-c2nn(-c3ccc(F)cc3)c(=O)c3ccccc23)s1 [Example 46, (Z)-1-(5-(3-(4-Fluorophenyl)-4-oxo-3,4-dihydrophthalazin-1-yl)thiophen-2-yl)-N-isopropylmethanimine Oxide]",154 % activity

# Further lines, results first:
row,"Sirt6 Activity (% activity, 10 μM)",SMILES
1,132 % activity,"CC(C)(C)/[N+]([O-])=C/c1ccc(-c2nn(-c3ccc(F)cc3)c(=O)c3ccccc23)s1 [Example 47, (Z)—N-tert-Butyl-1-(5-(3-(4-fluorophenyl)-4-oxo-3,4-dihydrophthalazin-1-yl)thiophen-2-yl)methanimine Oxide]"
2,107 % activity,"CC(C)/[N+]([O-])=C/c1ccc(-c2nn(-c3ccc(F)cc3)c(=O)c3ccccc23)o1 [Example 48, (Z)-1-(5-(3-(4-Fluorophenyl)-4-oxo-3,4-dihydrophthalazin-1-yl)furan-2-yl)-N-isopropylmethanimine Oxide]"
3,107 % activity,"COc1ccc(-c2nn(-c3ccc(F)cc3)c(=O)c3ccccc23)cc1/C=[N+](\[O-])C(C)(C)C [Example 49, (Z)—N-tert-Butyl-1-(5-(3-(4-fluorophenyl)-4-oxo-3,4-dihydrophthalazin-1-yl)-2-methoxyphenyl)methan Imine Oxide]"
4,105 % activity,"COc1ccc(-c2nn(-c3ccc(F)cc3)c(=O)c3ccccc23)cc1/C=[N+](\[O-])Cc1ccccc1 [Example 50, (Z)—N-Benzyl-1-(5-(3-(4-fluorophenyl)-4-oxo-3,4-dihydrophthalazin-1-yl)-2-methoxyphenyl)methanimine Oxide]"
5,139 % activity,"C/[N+]([O-])=C/c1cc(-c2nn(-c3ccc(F)cc3)c(=O)c3ccccc23)ccc1F [Example 51, (Z)-1-(2-Fluoro-5-(3-(4-fluorophenyl)-4-oxo-3,4-dihydrophthalazin-1-yl)phenyl)-N-methylmethanimine Oxide]"
6,172 % activity,"CC(C)/[N+]([O-])=C/c1cc(-c2nn(-c3ccc(F)cc3)c(=O)c3ccccc23)ccc1F [Example 52, (Z)-1-(2-Fluoro-5-(3-(4-fluorophenyl)-4-oxo-3,4-dihydrophthalazin-1-yl)phenyl)-N-isopropylmethanimine Oxide]"
7,172 % activity,"CC(C)(C)/[N+]([O-])=C/c1cc(-c2nn(-c3ccc(F)cc3)c(=O)c3ccccc23)ccc1F [Example 53, (Z)—N-tert-Butyl-1-(2-fluoro-5-(3-(4-fluorophenyl)-4-oxo-3,4-dihydrophthalazin-1-yl)phenyl) Methanimine Oxide]"
8,161 % activity,"O=c1c2ccccc2c(-c2ccc(F)c(/C=[N+](\[O-])Cc3ccccc3)c2)nn1-c1ccc(F)cc1 [Example 54, (Z)—N-Benzyl-1-(2-fluoro-5-(3-(4-fluorophenyl)-4-oxo-3,4-dihydrophthalazin-1-yl)phenyl) Methanimine Oxide]"
9,151 % activity,"C/[N+]([O-])=C/c1ccc(F)c(-c2nn(-c3ccc(F)cc3)c(=O)c3ccccc23)c1 [Example 55, (Z)-1-(4-Fluoro-3-(3-(4-fluorophenyl)-4-oxo-3,4-dihydrophthalazin-1-yl)phenyl)-N-methylmethanimine Oxide]"
10,115 % activity,"CC(C)/[N+]([O-])=C/c1ccc(F)c(-c2nn(-c3ccc(F)cc3)c(=O)c3ccccc23)c1 [Example 56, (Z)-1-(4-Fluoro-3-(3-(4-fluorophenyl)-4-oxo-3,4-dihydrophthalazin-1-yl)phenyl)-N-isopropylmethanimine Oxide]"
11,149 % activity,"CC(C)(C)/[N+]([O-])=C/c1ccc(F)c(-c2nn(-c3ccc(F)cc3)c(=O)c3ccccc23)c1 [Example 57, (Z)—N-tert-Butyl-1-(4-fluoro-3-(3-(4-fluorophenyl)-4-oxo-3,4-dihydrophthalazin-1-yl)phenyl) Methanimine Oxide]"

# Same assay, conditions: compound at 10 μM; fluorescence relative to the group without compound treatment (positive control group); 10 µM
row,"Sirt6 Activity (% activity, 10 μM)",SMILES
1,126 % activity,"CC(C)/[N+]([O-])=C/c1cccc(-c2nn(-c3ccc(F)cc3)c(=O)c3ccccc23)c1 [Example 37, (Z)-1-(3-(3-(4-Fluorophenyl)-4-oxo-3,4-dihydrophthalazin-1-yl)phenyl)-N-isopropyl methanimine Oxide]"
